Where two headings read alike, the source gives them in different places.
Tested on: N. gonorrhoeae clinical isolates
Experiment: MIC, agar dilution (CLSI)
Format: cell-based, Neisseria gonorrhoeae
Conditions: Neisseria gonorrhoeae

CC[C@H]1OC(=O)[C@H](C)[C@@H](O[C@H]2C[C@@](C)(OC)[C@@H](O)[C@H](C)O2)[C@H](C)[C@@H](O[C@@H]2O[C@H](C)C[C@H](N(C)C)[C@H]2O)[C@](C)(O)C[C@@H](C)CN(C)[C@H](C)[C@@H](O)[C@]1(C)O [Azi, azithromycin]
8 µg/mL: MIC (strain CDC19 (GCREF2012 015), read-out: MIC) | MIC (strain CDC80 (GCREF2013 028), read-out: MIC)
2 µg/mL: MIC (strain CDC82 (GCREF2013 031), read-out: MIC) | MIC (strain CDC88 (GCREF2013 037), read-out: MIC) | MIC (strain CDC89 (GCREF2013 038), read-out: MIC) | MIC (strain CDC94 (GCREF2013 043), read-out: MIC) | MIC (strain CDC98 (GCREF2013 048), read-out: MIC) | MIC90 (96 clinical isolates, read-out: MIC90)
0.5 µg/mL: MIC (strain CDC2 (GCREF2012 045), read-out: MIC) | MIC (strain CDC5 (GCREF2012 001), read-out: MIC) | MIC (strain CDC6 (GCREF2012 002), read-out: MIC) | MIC (strain CDC10 (GCREF2012 006), read-out: MIC) | MIC (strain CDC18 (GCREF2012 014), read-out: MIC) | MIC (strain CDC22 (GCREF2012 019), read-out: MIC) | MIC (strain CDC26 (GCREF2012 023), read-out: MIC) | MIC (strain CDC29 (GCREF2012 026), read-out: MIC) | MIC (strain CDC31 (GCREF2012 028), read-out: MIC) | MIC (strain CDC45 (GCREF2012 042), read-out: MIC) | MIC (strain CDC47 (GCREF2012 044), read-out: MIC) | MIC (strain CDC49 (GCREF2012 047), read-out: MIC) | MIC (strain CDC75 (GCREF2013 023), read-out: MIC)
0.031 µg/mL: MIC (strain CDC78 (GCREF2013 026), read-out: MIC)
0.016 µg/mL: MIC (strain CDC54 (GCREF2012 052), read-out: MIC) | MIC (strain CDC63 (GCREF2013 008), read-out: MIC)
4 µg/mL: MIC (strain CDC15 (GCREF2012 011), read-out: MIC) | MIC (strain CDC36 (GCREF2012 033), read-out: MIC) | MIC (strain CDC66 (GCREF2013 011), read-out: MIC) | MIC (strain CDC70 (GCREF2013 018), read-out: MIC) | MIC (strain CDC77 (GCREF2013 025), read-out: MIC) | MIC (strain CDC99 (GCREF2013 012), read-out: MIC)
0.25 µg/mL: MIC (strain CDC1 (GCREF2012 016), read-out: MIC) | MIC (strain CDC11 (GCREF2012 007), read-out: MIC) | MIC (strain CDC16 (GCREF2012 012), read-out: MIC) | MIC (strain CDC24 (GCREF2012 021), read-out: MIC) | MIC (strain CDC27 (GCREF2012 024), read-out: MIC) | MIC (strain CDC28 (GCREF2012 025), read-out: MIC) | MIC (strain CDC30 (GCREF2012 027), read-out: MIC) | MIC (strain CDC35 (GCREF2012 032), read-out: MIC) | MIC (strain CDC37 (GCREF2012 034), read-out: MIC) | MIC (strain CDC38 (GCREF2012 035), read-out: MIC) | MIC (strain CDC39 (GCREF2012 036), read-out: MIC) | MIC (strain CDC40 (GCREF2012 037), read-out: MIC) | MIC (strain CDC41 (GCREF2012 038), read-out: MIC) | MIC (strain CDC42 (GCREF2012 039), read-out: MIC) | MIC (strain CDC43 (GCREF2012 040), read-out: MIC) | MIC (strain CDC48 (GCREF2012 046), read-out: MIC) | MIC (strain CDC50 (GCREF2012 048), read-out: MIC) | MIC (strain CDC61 (GCREF2013 006), read-out: MIC)
> 16 µg/mL: MIC (strain CDC20 (GCREF2012 017), read-out: MIC)
0.125 µg/mL: MIC50 | MIC (strain CDC3 (GCREF2013 013)) | MIC (strain CDC4 (GCREF2013 030)) | MIC (strain CDC8 (GCREF2012 004)) | MIC (strain CDC9 (GCREF2012 005)) | MIC (strain CDC12 (GCREF2012 008)) | MIC (strain CDC13 (GCREF2012 009)) | MIC (strain CDC14 (GCREF2012 010)) | MIC (strain CDC21 (GCREF2012 018)) | MIC (strain CDC23 (GCREF2012 020)) | MIC (strain CDC25 (GCREF2012 022)) | MIC (strain CDC32 (GCREF2012 029)) | MIC (strain CDC33 (GCREF2012 030)) | MIC (strain CDC34 (GCREF2012 031)) | MIC (strain CDC46 (GCREF2012 043)) | MIC (strain CDC51 (GCREF2012 049)) | MIC (strain CDC52 (GCREF2012 050)) | MIC (strain CDC53 (GCREF2012 051)) | MIC (strain CDC55 (GCREF2013 001)) | MIC (strain CDC56 (GCREF2013 002)) | MIC (strain CDC57 (GCREF2013 003)) | MIC (strain CDC58 (GCREF2013 004)) | MIC (strain CDC59 (GCREF2013 044)) | MIC (strain CDC60 (GCREF2013 005)) | MIC (strain CDC62 (GCREF2013 007)) | MIC (strain CDC64 (GCREF2013 009)) | MIC (strain CDC65 (GCREF2013 010)) | MIC (strain CDC67 (GCREF2013 014)) | MIC (strain CDC68 (GCREF2013 016)) | MIC (strain CDC69 (GCREF2013 017)) | MIC (strain CDC71 (GCREF2013 019)) | MIC (strain CDC72 (GCREF2013 020)) | MIC (strain CDC73 (GCREF2013 021)) | MIC (strain CDC74 (GCREF2013 022)) | MIC (strain CDC76 (GCREF2013 024)) | MIC (strain CDC79 (GCREF2013 027)) | MIC (strain CDC81 (GCREF2013 029)) | MIC (strain CDC83 (GCREF2013 032)) | MIC (strain CDC84 (GCREF2013 033)) | MIC (strain CDC86 (GCREF2013 035)) | MIC (strain CDC87 (GCREF2013 036)) | MIC (strain CDC90 (GCREF2013 039)) | MIC (strain CDC91 (GCREF2013 040)) | MIC (strain CDC92 (GCREF2013 041)) | MIC (strain CDC93 (GCREF2013 042)) | MIC (strain CDC95 (GCREF2013 045)) | MIC (strain CDC96 (GCREF2013 046)) | MIC (strain CDC97 (GCREF2013 047)) | MIC (strain CDC100 (GCREF2013 015))

Source: publication PMC9487510, “A Novel Oral GyrB/ParE Dual Binding Inhibitor Effective against Multidrug-Resistant Neisseria gonorrhoeae and Other High-Threat Pathogens” (Antimicrobial Agents and Chemotherapy, 2022)
